Columns and labels:
[1] = buffer properties of cysteine; assay type: physicochemical; conditions: pH 5.5 to 7
Source text: In a preferred embodiment, the composition according to the invention, preferably an infusion solution, contains cysteine, if appropriate additionally to mannitol.

[2] = electrical conductivity of aqueous paracetamol solutions; assay type: physicochemical
Experimental: The composition according to the invention, preferably an infusion solution, has an electrical conductivity of at most 200 μS cm^−1. The measurement of the electrical conductivity of aqueous solutions is known to the person skilled in the art and suitable measuring apparatuses are obtainable commercially. The electrical conductivity is preferably measured at room temperature. […]
Aqueous solutions of paracetamol and further ingredients were prepared. The electrical conductivity of the solutions was measured and the storage stability of paracetamol was determined by means of the formation of degradation products (for the formation of the dimer cf., for example, D. W. Pottert et al, J Biol Chem, 1985, […], 12174-80; W. Clegg et al., Acta Crystallographica, 1998, C54, 1881-2).

| buffer properties [1] | electrical conductivity ([2]; 10 g of paracetamol in 1000 ml of water) | electrical conductivity ([2]; 10 g of paracetamol in 1000 ml of water plus 100 mg of NaCl (0.01% by weight of NaCl)) | Structure (SMILES) |
| --- | --- | --- | --- |
| no buffer properties at all | – | – | N[C@@H](CS)C(=O)O [cysteine] |
| – | about 4 μS/cm | about 200 μS/cm | CC(=O)Nc1ccc(O)cc1 [paracetamol] |

Reference: US20150105471A1, “PARACETAMOL FOR PARENTERAL ADMINISTRATION” (Fresenius Kabi Deutschland GmbH, priority 2009, published 2015)
